Experimental data taken from patent publication US20220233523A1, “ANTIBIOTIC POTENTIATION FOR NONTUBERCULOUS MYCOBACTERIAL DISEASE” (priority 2019, published 2022).

Columns and labels:
MAH 3393 biofilm = assay: Amikacin with short-chain fatty acids on biofilm of lung isolate MAH 3393; type: cell-based; conditions: amikacin concentration: 4 mg/ml; untreated 1.0 +/− 0.8 × 10^8
MAH 3388 biofilm = assay: Amikacin with short-chain fatty acids on biofilm of lung isolate MAH 3388; type: cell-based; conditions: for CFU/mL, MAH 3388: amikacin concentration: 4 mg/ml, untreated 9.4 +/− 0.2 × 10^7; for activity to potentiate Amikacin activity: biofilms of MAH 3388
Procedure: As a negative control, biofilms were incubated only with non-supplemented 7H9 without any antibiotics. […] Subsequently, 100 μl of 0.02% of Triton X-100 (final concentration 0.01%) was added to the established biofilms to mix, dilute and perform CFU analysis with the entire population of biofilms (attached and unattached).
Biofilms were established from an MAH strain isolated from the lungs of a patient (MAH 3388).

[1] = test system: planktonic cultures of MAH104; assay: Growth of planktonic cultures in non-supplemented 7H9 with metabolites; type: cell-based, Mycobacterium avium subsp hominissuis 104 (MAH104); conditions: propionic acid and butyric acid at 0.05%, glycerol 0.2%; 12 days at 37° C.
Procedure: MAH104 from 7H10 agar was used to make bacterial suspension in deionized water (10^9 CFU/ml) and then the suspension was centrifuged three times to wash the bacteria cells (3500 rpm for 20 minutes at 20° C.). After washing step, the bacterial suspensions were resuspended in 7H9 medium and suspensions were left alone to allow clumped bacteria to settle. The top half of the suspension was transferred to new tube and adjusted to 1×10^8 CFU/ml, using visual turbidity and optical density. […] These cultures were incubated at 37° C. for 12 days and the O.D.595 nm was measured at each 72 hours.
We determined the optimal concentration for the growth of MAH104 in non-supplemented 7H9 media since the amounts of these metabolites available in Biolog plates are unknown. […] The experiments were made in non-supplemented 7H9 medium (without any carbon sources: no OADC, no glycerol, and no tween 20 or 80) (FIG. 2A-C), which is the condition applied in the biofilms assay.

MAH104 biofilms = type: cell-based, Mycobacterium avium subsp hominissuis 104 (MAH104); conditions: O.D.590 nm, biofilm vs planktonic
Procedure: Metabolic phenotype study was performed with planktonic and biofilm cultures using the 96-well plates PM1 and PM2A (BIOLOG™, Hayward, Calif.). The assays with planktonic cells and biofilms were made at the same time. Each plate contains carbon substrates and one negative control well, in which the bacteria is tested without any substrate. The tests with planktonic and biofilm cultures were performed at the same time and the culture inoculum have the same number of passages. […] The experiments were made as an end-point assay.
The cultures of biofilms were established for 7 days in regular polystyrene 96 well plates, not in PM Biolog plates, as described above with a minor difference. […] (total of 14 days of biofilm incubated at 37° C.). To obtain spectrophotometric measurements from biofilm cultures (O.D.590 nm), the plate was centrifuged for 20 minutes at 3500 rpm at 20° C., which reduce bacteria interference with the readings, and biofilm supernatant was transferred to a new 96 well plates for O.D.590 nm measurement.
Experiments were performed three times as an end-point assay. If planktonic and/or biofilm cultures were able to metabolize a specific metabolite substrate, electrons from NADH reduce the Redox dye in an irreversible reaction that generates a purple color in the PM plate wells. The signal (+) and (−) indicates, respectively, whether a purple color was produced or not. Abiotic reductions of the Redox dye were assessed through adding bacteria-free GN/GP-IF-0a fluid in the wells. Negative control corresponds to the wells without any metabolic substrate.

| Structure (SMILES) | CFU/mL, MAH 3393 (MAH 3393 biofilm) | CFU/mL, MAH 3388 (MAH 3388 biofilm) | activity to potentiate Amikacin activity (MAH 3388 biofilm) | growth of planktonic MAH104 in non-supplemented 7H9 [1] | lower capacity of biofilms to use the substrate compared with planktonic cultures (MAH104 biofilms) [fold] |
| --- | --- | --- | --- | --- | --- |
| CCCC(=O)O [Butyric acid] | 6.2 +/− 0.7 × 10^7 CFU/mL | 9.7 +/− 0.6 × 10^7 CFU/mL | confirmed | able to grow | – |
| OCC(O)CO [Glycerol] | – | – | – | able to support MAH104 growth | 11.14 |
| CCC(=O)O [Propionic acid] | 1.7 +/− 0.4 × 10^7 CFU/mL | 9.6 +/− 0.4 × 10^7 CFU/mL | confirmed | able to grow | 5.49 |
